According to the PolyMetriX glass transition set:
± gives the standard deviation of the reports.

glass transition temperature [°C]	Compound
17.00	*NC(CCC(=O)OCc1ccccc1)C(*)=O (repeat unit)
175.00	*CCOC(=O)Nc1ccc(C)c(NC(=O)OCCOc2ccc(C3(c4ccc(O*)cc4)c4ccccc4-c4ccccc43)cc2)c1 (repeat unit)
48.1	*Oc1ccc(/C=C2\CCC/C(=C\c3ccc(OC(=O)CCCCCCCCC(*)=O)c(OC)c3)C2=O)cc1OC (repeat unit)
240.00	*Oc1ccc(S(=O)(=O)c2ccc(Oc3cc(C)c(C(c4cc(C(C)C)c(*)cc4C)c4ccccc4C(=O)O)cc3C(C)C)cc2)cc1 (repeat unit)
208.00	*Nc1ccc(NC(=O)Cc2cc(CC(*)=O)c(C)cc2C)cc1 (repeat unit)
220.00	*Oc1ccc(C(C)(C)c2ccc(OC(=O)c3ccc(S(=O)(=O)c4ccc(C(*)=O)cc4)cc3)cc2)cc1 (repeat unit)
133.00	*Nc1ccc(NC(=O)CCCCCC(*)=O)cc1 (repeat unit)
140.00	*CCN(CCOC(=O)Nc1ccc(-c2ccc(NC(=O)O*)c(OC)c2)cc1OC)c1ccc(/N=N/c2ccc([N+](=O)[O-])cc2)cc1 (repeat unit)
154.00	*c1ccc(C(=O)NCCCCCCCCCCCCNC(=O)c2ccc(-c3nc4ccccc4nc3*)cc2)cc1 (repeat unit)
40.00	*CCCCCCCCCCCCCCCCOC(=O)Nc1ccc(Cc2ccc(NC(=O)O*)cc2)cc1 (repeat unit)
296.00	*C(=O)Nc1ccc(Oc2ccc(NC(=O)c3ccc(N4C(=O)c5ccc(*)cc5C4=O)cc3)cc2)cc1 (repeat unit)
15.00	*CC(*)C(=O)OCCCCCCCCCCCn1c2ccccc2c2ccccc21 (repeat unit)
163.00	*CCCCCCNC(=O)c1cc(C(=O)N*)cc(C(C)(C)C)c1 (repeat unit)
142.00	*CC(*)(C)C(=O)OCCS(=O)(=O)c1ccc(/N=N/c2ccc(N(CC)CC)cc2)cc1 (repeat unit)
76.00	*C1C(=O)N(CCCCCCOc2ccc(-c3ccc(C#N)cc3)cc2)C(=O)C1* (repeat unit)
395.00	*Nc1ccc(-c2ccc(NC(=O)c3cccc(C(*)=O)c3)c(S)c2)cc1S (repeat unit)
102.50 ± 2.1	*c1ccc2c(c1)C(CCCCCC)(CCCCCC)c1cc(*)ccc1-2 (repeat unit)
150.00	*Oc1ccc(C(C)(C)c2ccc(OC(=O)C3CCC(C(*)=O)CC3)cc2)cc1 (repeat unit)
50.00	*CCOCCOC(=O)c1ccc(-c2ccc(C(=O)O*)cc2)cc1 (repeat unit)
294.00	*C(=O)Nc1cccc(NC(=O)c2ccc3[nH]c(-c4ccc(-c5nc6cc(*)ccc6[nH]5)cc4)nc3c2)c1 (repeat unit)
102.00	*Oc1ccc(OC(=O)c2ccc(C(*)=O)cc2Oc2ccc3ccccc3c2)cc1 (repeat unit)
183.50	*Oc1ccc(C(c2ccc(OC(*)=O)cc2)(C(F)(F)Cl)C(F)(F)Cl)cc1 (repeat unit)
73.00	*CC(*)(C)C(=O)OCCCCCCn1c2ccccc2c2ccccc21 (repeat unit)
356.00	*C(=O)Nc1ccc(NC(=O)c2ccc3c(c2)C(=O)N(c2cc(-c4nc5ccccc5s4)cc(N4C(=O)c5ccc(*)cc5C4=O)c2)C3=O)cc1 (repeat unit)

Second part, the compound before the results:

Compound	glass transition temperature [°C]
*CC(*)c1cc[n+](CCCCCCCC)cc1 (repeat unit)	206.20
*CCOC(=O)NCCCCCCNC(=O)O* (repeat unit)	56.00
*c1ccc(Oc2ccc(-c3c(-c4ccccc4)c(-c4ccc(-c5nc6ccccc6c(*)c5-c5ccccc5)cc4)nc4ccccc34)cc2)cc1 (repeat unit)	273.00
*CC(S*)c1ccccc1 (repeat unit)	-2.50
*CC(*)c1cc(Br)ccc1OCC (repeat unit)	80.00
*c1ccc(OCC2CCC(COc3ccc(-n4c(=O)c5cc6c(=O)n(*)c(=O)c6cc5c4=O)cc3)CC2)cc1 (repeat unit)	306.70
*Oc1ccc(OC(=O)c2ccc(OCCCCCCCCCCCCOc3ccc(C(*)=O)cc3)cc2)cc1S(=O)(=O)c1ccccc1 (repeat unit)	82.70
*O[Si](c1ccccc1)(c1ccccc1)c1ccc(-c2ccc([Si](*)(c3ccccc3)c3ccccc3)cc2)cc1 (repeat unit)	94.00
*CC(*)C(=O)OCC(C)CC (repeat unit)	-32.00
*CCCS(=O)(=O)CCCCS(=O)(=O)CCCOC(=O)O* (repeat unit)	43.00
*CCCCCCCCCCNC(=O)/C=C(\C)C(=O)N* (repeat unit)	74.00
*CCCCCCCCN1C(=O)c2ccc(C(c3ccc4c(c3)C(=O)N(*)C4=O)(C(F)(F)F)C(F)(F)F)cc2C1=O (repeat unit)	155.00
*N=P(N=P(/N=S(/*)Oc1ccc(C(C)(C)C)cc1)(Oc1ccc(-c2ccccc2)cc1)Oc1ccc(-c2ccccc2)cc1)(Oc1ccc(-c2ccccc2)cc1)Oc1ccc(-c2ccccc2)cc1 (repeat unit)	54.00
*c1ccc(Oc2ccc(C(c3ccc(Oc4ccc(N5C(=O)c6ccc7c8c(ccc(c68)C5=O)C(=O)N(*)C7=O)cc4)cc3)(C(F)(F)F)C(F)(F)F)cc2)cc1 (repeat unit)	280.00
*OC(C)C(=O)OCC(*)=O (repeat unit)	43.00
*c1ccc(Sc2ccc(Sc3ccc(Sc4ccc(Sc5ccc(N6C(=O)c7ccc(Oc8ccc9c(c8)C(=O)N(*)C9=O)cc7C6=O)cc5)s4)s3)s2)cc1 (repeat unit)	158.50
*c1ccc(C(c2ccccc2)c2ccc(N(*)c3ccc(C)cc3)cc2)cc1 (repeat unit)	199.00
*CC(CS(=O)(=O)CCCCC)O* (repeat unit)	39.00
*c1ccc(N2C(=O)c3ccc(C(c4ccc5c(c4)C(=O)N(c4ccc(N6C(=O)c7ccc(-c8ccc9c(c8)C(=O)N(*)C9=O)cc7C6=O)cc4)C5=O)(C(F)(F)F)C(F)(F)F)cc3C2=O)cc1 (repeat unit)	342.00
*CC(*)c1ccc(COCC(F)(F)C(F)(F)C(F)(F)C(F)(F)F)cc1 (repeat unit)	23.00
*c1ccc(OCCOc2ccc(/C=C/c3ccc([N+](=O)[O-])cc3)c(OCCOc3ccc(-c4nc5ccc(Oc6ccc7nc(*)c(-c8ccccc8)nc7c6)cc5nc4-c4ccccc4)cc3)c2)cc1 (repeat unit)	187.00
*CC(*)c1ccccc1C(=O)OC(C)C (repeat unit)	146.00
*CCOC(=O)c1ccc(C(=O)O*)cc1 (repeat unit) [Poly(ethylene terephthalate)]	75 ± 3.5
*c1ccc(OCCOCCOCCOc2cccc(N3C(=O)c4ccc(Oc5ccc6c(c5)C(=O)N(*)C6=O)cc4C3=O)c2)cc1 (repeat unit)	107.00
*c1cccc(OCCCCCCCCOc2cccc(N3C(=O)c4ccc(-c5ccc6c(c5)C(=O)N(*)C6=O)cc4C3=O)c2)c1 (repeat unit)	138.00
